Assay [1] deals with stimulated parietal cells. Briefly: Isolated Parietal Cell Assay: inhibition of 14C-aminopyrine accumulation in stimulated parietal cells. The note with it: 37° C. In kind it is cell-based, rabbit. As for the experimental part: Isolated Parietal Cell Assay Using the procedures described in Batzri, S. et al., Biochemica et Biophysica Acta 508, 328 (1978), and Soll, H., Am. J. Physiol. 238, […] (1980), the example compounds were tested for their ability to inhibit ^14 C-aminopyrine accumulation in stimulated parietal cells. Parietal cells were isolated from the fundic mucosa of rabbit stomachs by a four-stage collagenese digestion process. The supernatant fraction from the last two stages of this process contain the individual parietal cells. This cell suspension was centrifuged and reconstituted in a modified Hank's buffer to contain 1-2×10^6 cells/ml. […] […] […] The flasks were incubated in a shaking water bath at 37° C. and gassed with 95% O2, 5% CO2 for 20 minutes. Three aliquots were then taken from each flask, and cell pellets were collected by centrifugation. The pellets were then solubilized with Protosol (NEN) and the radioactivity determined by liquid scintillation spectrometry.

A further assay has as its target T1, H^+ /K^+ ATPase (Oryctolagus cuniculus, UniProt P27112).
T1 construct: microsomes prepared from a crude homogenate of rabbit gastric mucosa using differential centrifugation; from tissue; host or cells: rabbit gastric mucosa (microsomes, vesicular membranes)
The experiment in a line: Isolated H^+ /K^+ ATPase Assay: inhibition of K+ stimulated response in vesicular membranes from rabbit gastric mucosa. The note with it: 10 min preincubation, 15 min at 37° C. Type of assay: biochemical. As for the experimental part:
Isolated H^+ /K^+ ATPase Assay
Using the procedures described in Eibl, H. et al., Analytical Biochemistry 30, 51 (1969), Ganser, A. L. et al., Biochem. Biophys. Acta 307, 169 (1973), and Beil, W. et al., Br. J. Pharmac. 82, 651 (1984), the example compounds were tested for their ability to inhibit the H^+ /K^+ ATPase enzyme in the vesicular membranes from rabbit gastric mucosa. The H^+ /K^+ ATPase enzyme activity is present in microsomes prepared from a crude homogenate of rabbit gastric mucosa using differential centrifugation.
Assays were conducted in duplicate tubes in a 1 mL reaction volume consisting of 50 mM Tris buffer, 2mM MgCl2, ±10 mM KCl, 10 μl of example compound in dimethylsulfoxide and 20-30 μg of protein. The tubes were preincubated for 10 minutes in a 37° C. shaking water bath before the substrate, (Na2 ATP) was added. The mixture was then incubated for 15 minutes at 37° C. The reaction was stopped with 1 mL of 14% TCA and the tubes were centrifuged at 2000 rpm for 10 minutes.
The amount of inorganic phosphate (Pi) present in each sample was compared to a potassium phosphate standard curve.

Setting [2] is: Oryctolagus cuniculus, 20 min, DcAMP, read-out: Antisecretory Activity in Parietal Cell Assay, DcAMP (IC50).
[3] abbreviates: Oryctolagus cuniculus, 20 min, HI, histamine-stimulated, read-out: Antisecretory Activity in Parietal Cell Assay, HI (IC50).

Where a name gives a salt, the structure may show the parent alone. Read-outs that look alike come from different tables or passages of the source.

Drawing on patent US5106863A, “Substituted imidazole and pyridine derivatives” (Ortho Pharmaceutical Corporation, priority 1990, dated 1992), this text covers IC50 for 20 compounds.

T1 sequence (P27112 2-1035 limits assumed): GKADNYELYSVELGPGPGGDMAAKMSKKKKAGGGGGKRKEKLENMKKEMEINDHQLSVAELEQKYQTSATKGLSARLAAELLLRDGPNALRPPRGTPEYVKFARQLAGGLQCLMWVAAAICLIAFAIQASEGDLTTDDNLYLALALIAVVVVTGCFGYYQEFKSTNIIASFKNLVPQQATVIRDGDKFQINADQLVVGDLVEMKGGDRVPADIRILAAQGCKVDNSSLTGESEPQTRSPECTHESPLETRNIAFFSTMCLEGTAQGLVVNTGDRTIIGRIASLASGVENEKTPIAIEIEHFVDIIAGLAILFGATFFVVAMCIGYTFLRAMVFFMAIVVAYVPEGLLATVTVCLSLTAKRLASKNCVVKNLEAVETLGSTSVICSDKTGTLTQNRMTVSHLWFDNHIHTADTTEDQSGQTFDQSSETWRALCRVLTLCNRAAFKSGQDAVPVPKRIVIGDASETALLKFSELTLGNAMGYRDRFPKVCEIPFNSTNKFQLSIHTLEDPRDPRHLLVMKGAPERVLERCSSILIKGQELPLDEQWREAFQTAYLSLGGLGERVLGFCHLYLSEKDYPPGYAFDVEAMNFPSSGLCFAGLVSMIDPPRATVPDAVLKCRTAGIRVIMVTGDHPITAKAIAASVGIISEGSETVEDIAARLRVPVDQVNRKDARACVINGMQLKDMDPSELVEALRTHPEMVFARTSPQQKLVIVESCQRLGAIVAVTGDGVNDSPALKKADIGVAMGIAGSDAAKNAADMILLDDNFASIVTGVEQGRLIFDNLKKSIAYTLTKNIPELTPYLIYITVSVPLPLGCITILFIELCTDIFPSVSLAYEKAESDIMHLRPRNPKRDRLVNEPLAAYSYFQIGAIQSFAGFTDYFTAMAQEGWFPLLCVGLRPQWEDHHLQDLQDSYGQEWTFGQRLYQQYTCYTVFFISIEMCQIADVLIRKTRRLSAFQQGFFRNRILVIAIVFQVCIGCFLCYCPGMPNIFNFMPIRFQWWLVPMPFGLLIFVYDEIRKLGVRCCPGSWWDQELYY
T1 sequence (P18597 whole entry partner): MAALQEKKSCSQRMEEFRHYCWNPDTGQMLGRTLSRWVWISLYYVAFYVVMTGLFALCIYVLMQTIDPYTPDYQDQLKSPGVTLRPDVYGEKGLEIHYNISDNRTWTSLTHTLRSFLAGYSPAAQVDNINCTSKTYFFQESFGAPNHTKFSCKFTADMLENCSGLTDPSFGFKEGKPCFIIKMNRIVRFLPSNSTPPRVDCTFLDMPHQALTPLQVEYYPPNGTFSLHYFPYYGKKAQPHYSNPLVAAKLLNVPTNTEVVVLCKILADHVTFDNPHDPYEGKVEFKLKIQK

As to `CC(C)=CCC/C(C)=C/CSc1nc2cc(Cl)ccc2[nH]1` [Example 2, 5-Chloro-2-[(3,7-dimethyl-2,6(E)-octadienyl)-thio]-1H-1,3-benzimidazole], the IC50 in assay [1] (setting [2]) is 3500 nM; in assay [1] (setting [3]), 2300 nM; against H^+ /K^+ ATPase it was 5 µM.

As for `CC(C)=CCC/C(C)=C/Cn1c(CO)nc2ccccc21` [Example 19, 1-[3,7-Dimethyl-2,6(E)-octadienyl]-2-hydroxymethyl-1H-1,3-benzimidazole Hydrochloride.1/4H2 O], the results for the 50% inhibitory concentration (IC50) (in assay [1] (setting [2]); in assay [1] (setting [3]); at H^+ /K^+ ATPase) were 3300 nM, 2000 nM and 15 µM, respectively.

For `CC(C)=CCC/C(C)=C\CSc1nc2ccccc2[nH]1` [Example 11, 2-[(3,7-Dimethyl-2,6(Z)-octadienyl)-thio]-1H-1,3-benzimidazole.1/4Hydrate], the IC50 in assay [1] (setting [2]) worked out at 3100 nM; in assay [1] (setting [3]), 2800 nM.

Turning to `CC(C)=CCC/C(C)=C/CSCc1ccccn1` [Example 15, 2-[3,7-Dimethyl-2,6(E)octadienylthiomethyl]pyridine.1/10 Hydrate], the 50% inhibitory concentration (IC50) in assay [1] (setting [2]) turned out to be 2900 nM; in assay [1] (setting [3]), 2400 nM; against H^+ /K^+ ATPase, 9.6 µM.

Regarding `CC(C)=CCC[C@H](C)CCSc1nccn1C` [Example 17, 3S-2-[(3,7-Dimethyl-6-octen-1-yl)thio]-1-methylimidazole], the IC50 amounted to 1100 nM in assay [1] (setting [2]) and 1700 nM in assay [1] (setting [3]).

As to `CCCCCCCCSc1nc2ccccc2[nH]1` [Example 12, 2-Octylthio-1H-1,3-benzimidazole], the values for the IC50 in assay [1] (setting [2]) and in assay [1] (setting [3]) were 1000 nM and 1900 nM, respectively.

With `COc1ccc2ncn(C/C=C(\C)CCC=C(C)C)c2c1` [Example 18, 1-(3,7-Dimethyl-2,6(E)-octadienyl)-6-methoxy-1H-1,3-benzimidazole Monooxalate], the IC50 in assay [1] (setting [2]) stood at 860 nM; in assay [1] (setting [3]), 800 nM; on H^+ /K^+ ATPase it was 28 µM.

Take `CC(C)=CCC/C(C)=C/CSc1nc2cc(C(F)(F)F)ccc2[nH]1` [Example 6, 5-Trifluoromethyl-2-[(3,7-dimethyl-2,6(E)-octadienyl)thio]-1H-1,3-benzimidazole]: the IC50 in assay [1] (setting [2]) stood at 510 nM; in assay [1] (setting [3]), 460 nM.

As to `COc1c(C)cnc(Cn2c(SC/C=C(\C)CCC=C(C)C)nc3ccccc32)c1C` [Example 5, 1-(3,5-Dimethyl-4-methoxy-2-pyridylmethyl)-2-[(3,7-dimethyl-2,6(E)-octadienyl)thio]-1H-1,3-benzimidazole Monooxalate Hemihydrate], the 50% inhibitory concentration (IC50) was 19000 nM in assay [1] (setting [2]), 4000 nM in assay [1] (setting [3]) and 3.2 µM at H^+ /K^+ ATPase.

With `COc1c(C)cnc(Cn2c(SCC[C@@H](C)CCC=C(C)C)nc3ccccc32)c1C` [Example 9, 1-(3,5-Dimethyl-4-methoxy-2-pyridylmethyl)-2-[(3,7-dimethyl-6-octen-1-yl)thio]-1H-1,3-benzimidazole Monooxalate], the values for the IC50 (in assay [1] (setting [2]); in assay [1] (setting [3]); against H^+ /K^+ ATPase) were 1250 nM, 2000 nM and 3 µM, respectively.

As to `COc1ccc2[nH]c(SC/C=C(\C)CCC=C(C)C)nc2c1` [Example 4, 2-[(3,7-Dimethyl-2,6(E)-octadienyl)thio]-5-methoxy-1H-1,3-benzimidazole Monooxalate], the IC50 in assay [1] (setting [2]) was 2100 nM; in assay [1] (setting [3]) it was 700 nM.

For `CCCCCCCCSc1nc2cc(Cl)ccc2[nH]1` [Example 14, 5-Chloro-2-octylthio-1H-1,3-benzimidazole], the IC50 in assay [1] (setting [3]) turned out to be 2400 nM.

`CC(C)=CCCC(C)CC[S+]([O-])c1nc2ccccc2[nH]1` (single isomer, unassigned; (+)) [Example 8, (+)-2-[(3,7-Dimethyl-6-octen-1-yl)sulfinyl]-1H-1,3-benzimidazole Monooxalate]: the IC50 in assay [1] (setting [2]) is 33300 nM; in assay [1] (setting [3]) it was 40000 nM; at H^+ /K^+ ATPase it was 72 µM.

Regarding `CC(C)=CCC/C(C)=C\CSc1nc2ccccc2n1C/C=C(/C)CCC=C(C)C` [Example 10, 1-(3,7-Dimethyl-2,6(Z)-octadienyl)-2-[(3,7-dimethyl-2,6(Z)-octadienyl)-thio]-1H-1,3-benzimidazole Monooxalate], the results for the half-maximal inhibitory concentration (IC50) in assay [1] (setting [2]) and in assay [1] (setting [3]) were 1100 nM and 1700 nM, respectively.

Consider `CSc1ccc(-c2nc3ccccc3n2C/C=C(\C)CCC=C(C)C)cc1` [Example 21, 1-(3,7-Dimethyl-2,6(E)-octadienyl)-2-(4-methylthiophenyl)-1H-1,3-benzimidazole Monooxalate.H2 O], for which the results for the half-maximal inhibitory concentration (IC50) (in assay [1] (setting [2]); in assay [1] (setting [3]); against H^+ /K^+ ATPase) were 3000 nM, 40000 nM and 0.86 µM, respectively.

As for `CC(C)=CCC[C@H](C)CCSc1nc2ccccc2[nH]1` [Example 7, 3S(+)-2-[(3,7-Dimethyl-6-octen-1-yl)thio]-1H-1,3-benzimidazole], the IC50 in assay [1] (setting [2]) and in assay [1] (setting [3]) was 2200 nM throughout.

As for `CCCCCCCCSc1nc2cc(OC)ccc2[nH]1` [Example 13, 5-Methoxy-2-octylthio-1H-1,3-benzimidazole Hemioxalate Monohydrate], the IC50 in assay [1] (setting [3]) worked out at 1300 nM.

Turning to “5 (and 6)-Chloro-2-methyl-1-(3,7-dimethyl-2,6(E)-octadienyl)-1H-1,3-benzimidazoleMonohydrochloride.1/4H2 O [Example 20]”, the IC50 came to 1600 nM in assay [1] (DcAMP, 20 minutes, read-out: Antisecretory Activity in Parietal Cell Assay, DcAMP (IC50)); 430 nM in assay [1] (HI, histamine-stimulated, 20 minutes, read-out: Antisecretory Activity in Parietal Cell Assay, HI (IC50)); 10 µM against H^+ /K^+ ATPase.

Consider `CC(C)=CCC/C(C)=C/CSc1nc2cc(F)c(Cl)cc2[nH]1` [Example 3, 6-Chloro-5-fluoro-2-[(3,7-dimethyl-2,6(E)-octadienyl)thio]-1H-1,3-benzimidazole.1/4Hydrate], for which the IC50 in assay [1] (setting [2]) stood at 2300 nM; in assay [1] (setting [3]) it was 3100 nM; on H^+ /K^+ ATPase, 5.6 µM.

Consider `CC(C)=CCC/C(C)=C/CSc1nc2ccccc2[nH]1` [Example 1, 2-[(3,7-Dimethyl-2,6(E)-octadienyl)-thio]-1H-1,3-benzimidazole], for which the IC50 in assay [1] (setting [2]) was determined as 2150 nM; in assay [1] (setting [3]), 1300 nM.
